Test results published in ChEMBL document CHEMBL1201862, “PubChem BioAssay data set” (2004).
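Results reflect a 48-hour exposure of cells in 96-well plates to compound at five concentrations. Abbreviation: GI50, concentration required for 50% inhibition of growth.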 Activity calls are given as the source filed them. Cut-off read from the data, not from the text of the source: active = GI50 up to about 1.1 µM and inactive = higher.

What was measured:
Assay in all cases: NCI tumour cell line growth inhibition, 48 h
786-0 = tested on: 786-0
A498 = tested on: A498
A549 = tested on: A549
ACHN = tested on: ACHN
CAKI-1 = tested on: CAKI-1
CCRF-CEM = tested on: CCRF-CEM
DLD-1 = tested on: DLD-1
DMS-114 = tested on: DMS-114
DMS-273 = tested on: DMS-273
EKVX = tested on: EKVX
HCC 2998 = tested on: HCC 2998
HCT-116 = tested on: HCT-116
HCT-15 = tested on: HCT-15
HL-60 = tested on: HL-60
HOP-18 = tested on: HOP-18
HOP-62 = tested on: HOP-62
HT-29 = tested on: HT-29
IGROV-1 = tested on: IGROV-1
K562 = tested on: K562
KM-20L2 = tested on: KM-20L2
KM12 = tested on: KM12
LOX IMVI = tested on: LOX IMVI
LXFL 529 = tested on: LXFL 529
M14 = tested on: M14
M19-MEL = tested on: M19-MEL
MOLT-4 = tested on: MOLT-4
Malme-3M = tested on: Malme-3M
NCI-H226 = tested on: NCI-H226
NCI-H23 = tested on: NCI-H23
NCI-H460 = tested on: NCI-H460
OVCAR-3 = tested on: OVCAR-3
OVCAR-4 = tested on: OVCAR-4
OVCAR-5 = tested on: OVCAR-5
OVCAR-8 = tested on: OVCAR-8
RPMI-8226 = tested on: RPMI-8226
RXF 393 = tested on: RXF 393
RXF 631 = tested on: RXF 631
SF-268 = tested on: SF-268
SF-295 = tested on: SF-295
SF-539 = tested on: SF-539
SK-MEL-28 = tested on: SK-MEL-28
SK-MEL-2 = tested on: SK-MEL-2
SK-MEL-5 = tested on: SK-MEL-5
SN12C = tested on: SN12C
SNB-19 = tested on: SNB-19
SNB-75 = tested on: SNB-75
SNB-78 = tested on: SNB-78
SR = tested on: SR
SW-620 = tested on: SW-620
TK-10 = tested on: TK-10
UACC-257 = tested on: UACC-257
UACC-62 = tested on: UACC-62
UO-31 = tested on: UO-31
XF498 = tested on: XF498

What does the source list for `CCOC(=O)NC(=O)c1cn(C2OC(COC(=O)CCCCCCCCC(=O)OCC3OC(n4cc(C(=O)NC(=O)OCC)c(=O)[nH]c4=O)C(O)C3O)C(O)C2O)c(=O)[nH]c1=O` (centres undefined)?
GI50 (786-0): > 100 µM (inactive); GI50 (A498): > 100 µM (inactive); GI50 (A549): > 100 µM (inactive); GI50 (ACHN): > 100 µM (inactive); GI50 (CAKI-1): > 100 µM (inactive); GI50 (CCRF-CEM): > 100 µM (inactive); GI50 (DLD-1): > 100 µM (inactive); GI50 (DMS-114): > 100 µM (inactive); GI50 (DMS-273): > 100 µM (inactive); GI50 (EKVX): > 100 µM (inactive); GI50 (HCC 2998): > 100 µM (inactive); GI50 (HCT-116): > 100 µM (inactive); GI50 (HCT-15): > 100 µM; GI50 (HL-60): > 100 µM (inactive); GI50 (HOP-18): > 100 µM (inactive); GI50 (HOP-62): > 100 µM (inactive); GI50 (HT-29): > 100 µM (inactive); GI50 (IGROV-1): > 100 µM (inactive); GI50 (K562): > 100 µM (inactive); GI50 (KM-20L2): > 100 µM (inactive); GI50 (KM12): > 100 µM (inactive); GI50 (LOX IMVI): > 100 µM (inactive); GI50 (LXFL 529): > 100 µM (inactive); GI50 (M14): > 100 µM (inactive); GI50 (M19-MEL): > 100 µM (inactive); GI50 (MOLT-4): > 100 µM (inactive); GI50 (Malme-3M): > 100 µM (inactive); GI50 (NCI-H226): > 100 µM (inactive); GI50 (NCI-H23): > 100 µM (inactive); GI50 (NCI-H460): > 100 µM (inactive); GI50 (OVCAR-3): > 100 µM (inactive); GI50 (OVCAR-4): > 100 µM (inactive); GI50 (OVCAR-5): > 100 µM (inactive); GI50 (OVCAR-8): > 100 µM (inactive); GI50 (RPMI-8226): > 100 µM (inactive); GI50 (RXF 393): > 100 µM (inactive); GI50 (RXF 631): > 100 µM (inactive); GI50 (SF-268): > 100 µM (inactive); GI50 (SF-295): > 100 µM (inactive); GI50 (SF-539): > 100 µM (inactive); GI50 (SK-MEL-28): > 100 µM (inactive); GI50 (SK-MEL-2): > 100 µM (inactive); GI50 (SK-MEL-5): > 100 µM (inactive); GI50 (SN12C): > 100 µM (inactive); GI50 (SNB-19): > 100 µM (inactive); GI50 (SNB-75): > 100 µM (inactive); GI50 (SNB-78): > 100 µM (inactive); GI50 (SR): > 100 µM (inactive); GI50 (SW-620): > 100 µM (inactive); GI50 (TK-10): > 100 µM (inactive); GI50 (UACC-257): > 100 µM (inactive); GI50 (UACC-62): > 100 µM (inactive); GI50 (UO-31): > 100 µM (inactive); GI50 (XF498): > 100 µM (inactive)
